The target of experiment [1] is T1, Human Calpain 1/NS1 (Homo sapiens, UniProt P07384).
T1 sequence (P07384 1-714): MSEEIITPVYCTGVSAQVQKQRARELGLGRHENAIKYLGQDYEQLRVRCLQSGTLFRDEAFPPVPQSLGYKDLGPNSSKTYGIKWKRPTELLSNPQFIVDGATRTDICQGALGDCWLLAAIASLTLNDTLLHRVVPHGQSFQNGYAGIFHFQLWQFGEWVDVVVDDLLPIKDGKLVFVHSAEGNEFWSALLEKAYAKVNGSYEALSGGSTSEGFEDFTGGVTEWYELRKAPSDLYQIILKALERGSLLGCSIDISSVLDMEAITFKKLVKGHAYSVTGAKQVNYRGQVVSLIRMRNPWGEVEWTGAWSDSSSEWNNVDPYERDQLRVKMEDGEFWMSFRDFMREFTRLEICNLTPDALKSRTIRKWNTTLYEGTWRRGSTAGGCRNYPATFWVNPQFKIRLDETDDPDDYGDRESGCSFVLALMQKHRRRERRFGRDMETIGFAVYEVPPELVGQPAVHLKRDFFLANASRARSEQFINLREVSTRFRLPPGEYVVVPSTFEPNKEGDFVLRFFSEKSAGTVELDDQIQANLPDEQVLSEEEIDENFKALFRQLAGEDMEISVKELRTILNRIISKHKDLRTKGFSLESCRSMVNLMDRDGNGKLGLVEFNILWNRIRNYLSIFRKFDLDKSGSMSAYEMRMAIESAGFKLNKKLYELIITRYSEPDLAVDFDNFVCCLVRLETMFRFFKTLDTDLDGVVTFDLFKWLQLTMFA
T1 sequence (P04632 1-268 partner): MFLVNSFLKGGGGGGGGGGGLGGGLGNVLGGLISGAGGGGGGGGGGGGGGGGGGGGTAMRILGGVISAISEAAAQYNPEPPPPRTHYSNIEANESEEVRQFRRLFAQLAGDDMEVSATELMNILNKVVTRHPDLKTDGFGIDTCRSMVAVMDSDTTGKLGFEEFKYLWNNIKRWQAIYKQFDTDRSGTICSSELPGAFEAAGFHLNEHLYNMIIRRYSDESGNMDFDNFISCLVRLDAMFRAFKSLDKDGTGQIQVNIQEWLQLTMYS
Put plainly: Calpain inhibition continuous fluorescence (FRET) assay, Human Calpain 1/NS1. The experiment is classed as biochemical. The following applies: read-out: Human Calpain 1/NS1 IC50. The gist of the method:
(§1)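 Fluorescence increase from the cleaved 5-FAM/QXL 520 substrate, read at 490/520 nm, gave activity. Calcium was supplied with the substrate to activate the enzyme in situ after a 25C enzyme-inhibitor preincubation, and IC50s were fit from initial slopes.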

Experiment [2] has as its target T2, Human Calpain 2/NS1 (Homo sapiens, UniProt P17655).
T2 sequence (P17655 1-700): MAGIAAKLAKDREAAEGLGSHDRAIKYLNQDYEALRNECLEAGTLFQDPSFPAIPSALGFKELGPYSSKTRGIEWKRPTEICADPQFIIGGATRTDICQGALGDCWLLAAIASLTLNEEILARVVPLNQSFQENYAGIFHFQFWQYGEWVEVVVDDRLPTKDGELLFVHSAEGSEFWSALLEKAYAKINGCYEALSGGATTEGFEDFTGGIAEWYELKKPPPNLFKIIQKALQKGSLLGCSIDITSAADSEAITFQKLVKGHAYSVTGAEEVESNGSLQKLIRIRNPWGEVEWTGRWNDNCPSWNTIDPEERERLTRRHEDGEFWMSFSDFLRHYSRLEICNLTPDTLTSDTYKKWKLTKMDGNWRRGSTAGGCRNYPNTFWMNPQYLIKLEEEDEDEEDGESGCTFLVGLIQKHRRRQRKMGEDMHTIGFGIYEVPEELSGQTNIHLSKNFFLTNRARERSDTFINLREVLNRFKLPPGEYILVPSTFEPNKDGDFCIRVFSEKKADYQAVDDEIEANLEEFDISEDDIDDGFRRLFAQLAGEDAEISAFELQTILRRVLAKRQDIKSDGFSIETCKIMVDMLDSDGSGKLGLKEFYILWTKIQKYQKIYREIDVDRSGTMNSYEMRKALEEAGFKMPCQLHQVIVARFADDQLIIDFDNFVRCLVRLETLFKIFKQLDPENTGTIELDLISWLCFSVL
T2 sequence (P04632 1-268 partner): T1 sequence (P04632 1-268 partner)
Put plainly: Calpain inhibition continuous fluorescence (FRET) assay, Human Calpain 2/NS1. Type of experiment: biochemical. The following applies: read-out: Human Calpain 2/NS1 IC50. The gist of the method:
as §1

Experiment [3] has as its target T3, Human Calpain 9/NS1 (Homo sapiens, UniProt O14815).
T3 sequence (O14815 1-690): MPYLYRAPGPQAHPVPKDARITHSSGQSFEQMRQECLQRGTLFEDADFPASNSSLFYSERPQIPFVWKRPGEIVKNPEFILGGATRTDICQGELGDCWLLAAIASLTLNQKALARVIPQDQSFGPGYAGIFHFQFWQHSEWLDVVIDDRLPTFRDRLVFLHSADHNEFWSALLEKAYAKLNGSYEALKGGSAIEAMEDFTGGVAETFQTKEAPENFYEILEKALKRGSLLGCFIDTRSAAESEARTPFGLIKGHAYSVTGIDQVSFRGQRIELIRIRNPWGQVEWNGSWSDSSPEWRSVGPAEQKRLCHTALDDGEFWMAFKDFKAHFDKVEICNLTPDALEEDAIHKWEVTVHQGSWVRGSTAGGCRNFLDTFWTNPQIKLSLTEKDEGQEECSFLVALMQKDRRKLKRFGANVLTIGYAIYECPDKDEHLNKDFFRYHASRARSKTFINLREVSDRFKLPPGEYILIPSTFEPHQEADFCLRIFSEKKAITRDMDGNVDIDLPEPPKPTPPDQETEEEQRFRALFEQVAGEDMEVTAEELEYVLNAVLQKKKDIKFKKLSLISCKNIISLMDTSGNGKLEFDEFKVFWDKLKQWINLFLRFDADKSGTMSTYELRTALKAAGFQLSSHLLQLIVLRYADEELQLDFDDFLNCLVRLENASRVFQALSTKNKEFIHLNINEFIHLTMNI
T3 sequence (P04632 1-268 partner): T1 sequence (P04632 1-268 partner)
Kind of experiment: Calpain inhibition continuous fluorescence (FRET) assay, Human Calpain 9/NS1. Type of experiment: biochemical. The following applies: read-out: Human Calpain 9/NS1 IC50. The gist of the method: as §1

Experiment [4] concerns Calpain activity in SH-SY5Y cells (SBDP-150). Put plainly: SH-SY5Y Spectrin western blot assay (SBDP-150 breakdown product, A23187-induced). The settings on record: Homo sapiens, SH-SY5Y cells, read-out: SH-SY5Y Spectrin IC50. Type of experiment: cell-based. (In general: A western blot detects proteins with antibodies after separation by electrophoresis.)
In experiment [5] the test system is Calpain activity in SH-SY5Y cells. Put plainly: SH-SY5Y + AMC fluorescence assay (Suc-LLVY-AMC substrate). The experiment is classed as cell-based. The settings on record: read-out: SH-SY5Y + AMC IC50.
Where [6] appears, read: Column D, A23187-induced SBDP-150.
Setting [7] is: A23187-induced SBDP-150, western blot.

The values that follow come from patent US11339130B1 (Blade Therapeutics, Inc., priority 2016, dated 2022).

pIC50: −log10 of the molar value. Like-named read-outs stand apart in the source and are kept apart here.

With `Cc1cc(C(=O)N[C@@H](Cc2ccccc2)C(=O)C(N)=O)n(-c2cccnc2)n1` [Compound 136, (S)—N-(4-amino-3,4-dioxo-1-phenylbutan-2-yl)-3-methyl-1-(pyridin-3-yl)-1H-pyrazole-5-carboxamide], the pIC50 in experiment [1] (Column A) was over 5.52; in experiment [2] (Column B), over 5.52; in experiment [3] (Column C), over 5.52; in experiment [4] (setting [6]), 4.60 to 5.00; in experiment [5] (Column E) it was 4.60 to 5.00.

On to `Cn1cc(C(=O)N[C@@H](CC(C)(C)C)C(=O)C(N)=O)c(-c2ccccc2)n1` [Compound 416, (S)—N-(1-amino-5,5-dimethyl-1,2-dioxohexan-3-yl)-1-methyl-3-phenyl-1H-pyrazole-4-carboxamide], for which the pIC50 was over 5.52 in experiment [1]; over 5.52 in experiment [2]; over 5.52 in experiment [3]; under 4.60 in experiment [4] (setting [7]); under 4.60 in experiment [5].

Turning to `Cc1cc(C)cc(CC(NC(=O)c2nsnc2-c2ccccc2)C(=O)C(N)=O)c1` (stereo not drawn) [Compound 466, N-(4-amino-1-(3,5-dimethylphenyl)-3,4-dioxobutan-2-yl)-4-phenyl-1,2,5-thiadiazole-3-carboxamide], the pIC50 is over 5.52 in experiment [1]; over 5.52 in experiment [2]; over 5.52 in experiment [3]; over 5.00 in experiment [4] (setting [7]); under 4.60 in experiment [5].

On to `Cc1nc(-c2ccc(F)cc2)c(C(=O)N[C@@H](Cc2ccccc2)C(=O)C(N)=O)o1` [Compound 248, (S)—N-(4-amino-3,4-dioxo-1-phenylbutan-2-yl)-4-(4-fluorophenyl)-2-methyloxazole-5-carboxamide], for which the pIC50 is over 5.52 in experiment [1] (Column A); over 5.52 in experiment [2] (Column B); over 5.52 in experiment [3] (Column C); over 5.00 in experiment [4] (setting [6]); over 5.00 in experiment [5] (Column E).

As to `NC(=O)C(=O)[C@H](Cc1ccccc1)NC(=O)c1cn(CC2CC2)nc1-c1ccccc1` [Compound 251, (S)—N-(4-amino-3,4-dioxo-1-phenylbutan-2-yl)-1-(cyclopropylmethyl)-3-phenyl-1H-pyrazole-4-carboxamide], the pIC50 in experiment [1] (Column A) was over 5.52; in experiment [2] (Column B) it was over 5.52; in experiment [3] (Column C), over 5.52; in experiment [4] (setting [6]) it was under 4.60; in experiment [5] (Column E) it was under 4.60.

As for `NC(=O)C(=O)C(Cc1ccccc1)NC(=O)c1cnoc1-c1cccc(F)c1` (stereo not drawn) [Compound 559, N-(4-amino-3,4-dioxo-1-phenylbutan-2-yl)-5-(3-fluorophenyl)isoxazole-4-carboxamide], the pIC50 in experiment [1] is over 5.52; in experiment [2], over 5.52; in experiment [3], over 5.52; in experiment [4] (setting [7]), 4.60 to 5.00; in experiment [5] it was under 4.60.

Turning to `Cc1nc(-c2ccccc2)c(C(=O)NC(Cc2ccccc2)C(=O)C(=O)NC2CC2)o1` (stereo not drawn) [Compound 459, N-(4-(cyclopropylamino)-3,4-dioxo-1-phenylbutan-2-yl)-2-methyl-4-phenyloxazole-5-carboxamide], the pIC50 was over 5.52 in experiment [1]; over 5.52 in experiment [2]; over 5.52 in experiment [3]; 4.60 to 5.00 in experiment [4] (setting [7]); over 5.00 in experiment [5].

As to `COc1cc(C(=O)NC(Cc2ccccc2)C(=O)C(N)=O)n(-c2ccccc2)n1` (stereo not drawn) [Compound 392, N-(4-amino-3,4-dioxo-1-phenylbutan-2-yl)-3-methoxy-1-phenyl-1H-pyrazole-5-carboxamide], the pIC50 was under 5.00 in experiment [1]; under 5.00 in experiment [2]; under 5.00 in experiment [3]; 4.60 to 5.00 in experiment [4] (setting [7]); over 5.00 in experiment [5].

Take `NC(=O)C(=O)C(Cc1ccccc1)NC(=O)c1nsnc1-c1ccncn1` (stereo not drawn) [Compound 374, N-(4-amino-3,4-dioxo-1-phenylbutan-2-yl)-4-(pyrimidin-4-yl)-1,2,5-thiadiazole-3-carboxamide]: the pIC50 in experiment [1] is over 5.52; in experiment [2] it was over 5.52; in experiment [3], over 5.52; in experiment [4] (setting [7]), over 5.00; in experiment [5], over 5.00.

Consider `Cc1cc(-c2nn(C)cc2C(=O)NC(Cc2ccccc2)C(=O)C(N)=O)c(C)s1` (stereo not drawn) [Compound 499, N-(4-amino-3,4-dioxo-1-phenylbutan-2-yl)-3-(2,5-dimethylthiophen-3-yl)-1-methyl-1H-pyrazole-4-carboxamide], for which the pIC50 in experiment [1] was over 5.52; in experiment [2], over 5.52; in experiment [3], over 5.52; in experiment [4] (setting [7]) it was 4.60 to 5.00; in experiment [5] it was over 5.00.

For the compound `Cn1cc(C(=O)N[C@@H](Cc2ccccc2)C(=O)C(N)=O)c(-c2cccnc2)n1` [Compound 188, (S)—N-(4-amino-3,4-dioxo-1-phenylbutan-2-yl)-1-methyl-3-(pyridin-3-yl)-1H-pyrazole-4-carboxamide], the pIC50 in experiment [1] (Column A) is over 5.52; in experiment [2] (Column B) it was over 5.52; in experiment [3] (Column C), over 5.52; in experiment [4] (setting [6]), 4.60 to 5.00; in experiment [5] (Column E) it was under 4.60.

Turning to `Cc1cnn(-c2ccccc2)c1C(=O)N[C@@H](Cc1ccccc1)C(=O)C(N)=O` [Compound 223, (S)—N-(4-amino-3,4-dioxo-1-phenylbutan-2-yl)-4-methyl-1-phenyl-1H-pyrazole-5-carboxamide], the pIC50 is over 5.52 in experiment [1] (Column A); over 5.52 in experiment [2] (Column B); over 5.52 in experiment [3] (Column C); 4.60 to 5.00 in experiment [4] (setting [6]); under 4.60 in experiment [5] (Column E).
